{
  "source": "patent US8524703B2",
  "about": "“Bridgehead amine ring-fused indoles and indolines” (AbbVie Inc., priority 2009, dated 2013)",
  "system": "SK-N-SH human neuroblastoma cells",
  "assay": "Serum Deprivation/JC-1 Mitochondrial Membrane Potential (MMP) Assay",
  "format": "cell-based",
  "settings": "Homo sapiens, SK-N-SH; for Emax: percent maximal JC-1 ratio normalized to peak value for 10 μM dimebolin, read-out: JC-1 max %; for EC50: serum deprivation ~18 hours, JC-1 ratio normalized to peak value for 10 μM dimebolin",
  "description": "Tissue Culture: SK-N-SH human neuroblastoma cells obtained from American Type Culture Collection (Rockville, Md.) were maintained in the log phase of growth in Minimal Essential Media (MEM), 10% heat inactivated fetal calf serum and 100 units/mL antibiotic-antimycotic (AA). Cells were cultured and maintained in a humidified incubator at 37° C. under 5% CO2 and 95% air. Cells were trypsinized (0.25%) and subcultured every 3 days and used from 15-18 passages. All cell culture supplies were obtained from Invitrogen (Carlsbad, Calif.).\nSerum Deprivation/JC-1 Mitochondrial Membrane Potential (MMP) Assay.\nSK-N-SH cells were plated 2-3 days in advance at a concentration of 50,000 cells/well onto collagen coated black-walled 96 well plates (Becton-Dickinson, Bedford, Mass.) in a total volume of 200 μL. On day of experimental treatment, the media containing serum was aspirated from each well and rinsed once with MEM/1% AA without serum. The cells then were incubated overnight in 100 μL of MEM/1% AA (no serum) with and without dimebolin or novel chemical entities overnight for ˜18 hours. The following day, JC-1 dye (5,5′,6,6′-tetrachloro-1,1′,3,3′-tetraethylbenzimidazolcarbocyanide) was diluted 1:10 into MEM media according to the JC-1 Mitochondrial Membrane Potential Assay Kit: (Cayman Chemical Company, Ann Arbor, Mich.) and then 10 μL of the JC-1 dye solution was added to each well. The plates were centrifuged for 5 minutes at 400×g at room temperature followed by 40 minute incubation at 37° C. The plates were washed twice with 200 μL of provided Assay Buffer followed an addition of 100 μL of Assay Buffer to each well. The plates were read with an excitation and emission of 560 nm and 595 nM for red fluorescence and with an excitation and emission of […] and 535 nM for green fluorescence to determine the final JC-1 value taking the red to green fluorescence ratio. This assay is based on change in mitochondrial membrane potential (MMP) using this lipophilic cationic dye, JC-1, by monitoring the changes in the ratio of red to green fluorescence as the MMP depolarizes. This change in MMP reflects the health of the cell with healthy, viable cells have a high JC-1 ratio and high MMP whereas apoptotic, unhealthy cells have a low JC-1 ratio or low MMP.\nFor the ability of compounds to reverse the stress due to serum deprivation and increase the JC-1 ratio, the percent maximal intensity in JC-1 ratio was normalized to that induced by the peak value for 10 μM dimebolin and plotted against the compound concentration to calculate EC50 values and to control for plate-to-plate variability. Concentration-response data were analyzed using GraphPad Prism (San Diego, Calif.); the EC50 values were derived from a single curve fit to the mean data of n=2-3, in duplicates.\nAll compounds were dissolved in dimethyl sulfoxide at 10 mM stock solutions and tested at a concentration that the dimethyl sulfoxide levels never exceeded 1%.",
  "data": [
    {"smiles": "Cc1ccc(CCc2cccc3c4c([nH]c23)CN2CCC4CC2)cn1", "note": "[Example 33, 9-[2-(6-methylpyridin-3-yl)ethyl]-3,4,5,10-tetrahydro-1H-2,5-ethanoazepino[3,4-b]indole]", "values": [
      {"measurement": "Emax", "value": 197, "unit": "%"},
      {"measurement": "EC50", "value": 6.01, "unit": "µM"}
    ]},
    {"smiles": "C(#Cc1cccc2c3c([nH]c12)C1CCN(CC1)C3)c1cccnc1", "note": "[Example 13, 7-(pyridin-3-ylethynyl)-3,4,5,6-tetrahydro-1H-2,5-ethanoazepino[4,3-b]indole]", "values": [
      {"measurement": "Emax", "value": 142, "unit": "%"},
      {"measurement": "EC50", "value": 5.17, "unit": "µM"}
    ]},
    {"smiles": "Cc1ccc(CCc2cccc3c4c([nH]c23)C2CCN(CC2)C4)cn1", "note": "[Example 2, 7-[2-(6-methylpyridin-3-yl)ethyl]-3,4,5,6-tetrahydro-1H-2,5-ethanoazepino[4,3-b]indole]", "values": [
      {"measurement": "Emax", "value": 170, "unit": "%"},
      {"measurement": "EC50", "value": 5.22, "unit": "µM"}
    ]},
    {"smiles": "Cc1ccc(/C=C/c2cccc3c4c([nH]c23)C2CCCN(C4)C2)cn1", "note": "(stereo not drawn) [Example 35, 8-[(E)-2-(6-methylpyridin-3-yl)vinyl]-1,3,4,5,6,7-hexahydro-2,6-methanoazocino[4,3-b]indole]", "values": [
      {"measurement": "Emax", "value": 213, "unit": "%"},
      {"measurement": "EC50", "value": 7.28, "unit": "µM"}
    ]},
    {"smiles": "Cc1ccc(C#Cc2cc(F)cc3c4c([nH]c23)C2CCN(CC2)C4)cn1", "note": "[Example 24, 9-fluoro-7-[(6-methylpyridin-3-yl)ethynyl]-3,4,5,6-tetrahydro-1H-2,5-ethanoazepino[4,3-b]indole]", "values": [
      {"measurement": "Emax", "value": 156, "unit": "%"},
      {"measurement": "EC50", "value": 5.38, "unit": "µM"}
    ]},
    {"smiles": "c1cc(-c2cncnc2)c2[nH]c3c(c2c1)CN1CCC3CC1", "note": "[Example 38, 7-(pyrimidin-5-yl)-3,4,5,6-tetrahydro-1H-2,5-ethanoazepino[4,3-b]indole]", "values": [
      {"measurement": "Emax", "value": 76, "unit": "%"},
      {"measurement": "EC50", "value": 10.5, "unit": "µM"}
    ]},
    {"smiles": "Fc1ccc(/C=C/c2cccc3c4c([nH]c23)C2CCN(CC2)C4)cc1", "note": "[Example 10, 7-[(E)-2-(4-fluorophenyl)vinyl]-3,4,5,6-tetrahydro-1H-2,5-ethanoazepino[4,3-b]indole]", "values": [
      {"measurement": "Emax", "value": 84, "unit": "%"},
      {"measurement": "EC50", "value": 4.74, "unit": "µM"}
    ]},
    {"smiles": "Cc1ccc(/C=C/c2cccc3[nH]c4c(c23)CN2CCC4CC2)cn1", "note": "[Example 18, 10-[(E)-2-(6-methylpyridin-3-yl)vinyl]-3,4,5,6-tetrahydro-1H-2,5-ethanoazepino[4,3-b]indole]", "values": [
      {"measurement": "Emax", "value": 173, "unit": "%"},
      {"measurement": "EC50", "value": 3.1, "unit": "µM"}
    ]},
    {"smiles": "C(=C\\c1cccc2c3c([nH]c12)C1CCN(CC1)C3)/c1ccccn1", "note": "[Example 12, 7-[(E)-2-pyridin-2-ylvinyl]-3,4,5,6-tetrahydro-1H-2,5-ethanoazepino[4,3-b]indole]", "values": [
      {"measurement": "Emax", "value": 192, "unit": "%"},
      {"measurement": "EC50", "value": 3.56, "unit": "µM"}
    ]},
    {"smiles": "C(=C\\c1cccc2c3c([nH]c12)C1CCN(CC1)C3)/c1ccsc1", "note": "[Example 6, 7-[(E)-2-thien-3-ylvinyl]-3,4,5,6-tetrahydro-1H-2,5-ethanoazepino[4,3-b]indole]", "values": [
      {"measurement": "Emax", "value": 67, "unit": "%"},
      {"measurement": "EC50", "value": 6.62, "unit": "µM"}
    ]},
    {"smiles": "Cc1ccc(-c2cccc3c4c([nH]c23)C2CCN(CC2)C4)cn1", "note": "[Example 37, 7-(6-methylpyridin-3-yl)-3,4,5,6-tetrahydro-1H-2,5-ethanoazepino[4,3-b]indole]", "values": [
      {"measurement": "Emax", "value": 179, "unit": "%"},
      {"measurement": "EC50", "value": 8.66, "unit": "µM"}
    ]},
    {"smiles": "c1cc(-c2ccncc2)c2[nH]c3c(c2c1)CN1CCC3CC1", "note": "[Example 40, 7-(pyridin-4-yl)-3,4,5,6-tetrahydro-1H-2,5-ethanoazepino[4,3-b]indole]", "values": [
      {"measurement": "Emax", "value": 92, "unit": "%"},
      {"measurement": "EC50", "value": 8.99, "unit": "µM"}
    ]},
    {"smiles": "C(=C\\c1cccc2c3c([nH]c12)C1CCN(CC1)C3)/c1ccncc1", "note": "[Example 11, 7-[(E)-2-pyridin-4-ylvinyl]-3,4,5,6-tetrahydro-1H-2,5-ethanoazepino[4,3-b]indole]", "values": [
      {"measurement": "Emax", "value": 171, "unit": "%"},
      {"measurement": "EC50", "value": 6.73, "unit": "µM"}
    ]},
    {"smiles": "Fc1cccc(CCc2cccc3c4c([nH]c23)C2CCN(CC2)C4)c1", "note": "[Example 16, 7-[2-(3-fluorophenyl)ethyl]-3,4,5,6-tetrahydro-1H-2,5-ethanoazepino[4,3-b]indole]", "values": [
      {"measurement": "Emax", "value": 49, "unit": "%"},
      {"measurement": "EC50", "value": "> 30", "unit": "µM"}
    ]},
    {"smiles": "C(=C\\c1cccc2c3c([nH]c12)C1CCN(CC1)C3)/c1cccnc1", "note": "[Example 34, 7-[(E)-2-pyridin-3-ylvinyl]-3,4,5,6-tetrahydro-1H-2,5-ethanoazepino[4,3-b]indole]", "values": [
      {"measurement": "Emax", "value": 109, "unit": "%"},
      {"measurement": "EC50", "value": 6.3, "unit": "µM"}
    ]},
    {"smiles": "Fc1cccc(/C=C/c2cccc3c4c([nH]c23)C2CCN(CC2)C4)c1", "note": "[Example 15, 7-[(E)-2-(3-fluorophenyl)vinyl]-3,4,5,6-tetrahydro-1H-2,5-ethanoazepino[4,3-b]indole]", "values": [
      {"measurement": "Emax", "value": 44, "unit": "%"},
      {"measurement": "EC50", "value": "> 30", "unit": "µM"}
    ]},
    {"smiles": "Fc1ccc(/C=C/c2cccc3c4c([nH]c23)C2CCN(CC2)C4)c(F)c1", "note": "[Example 14, 7-[(E)-2-(2,4-difluorophenyl)vinyl]-3,4,5,6-tetrahydro-1H-2,5-ethanoazepino[4,3-b]indole]", "values": [
      {"measurement": "Emax", "value": 39, "unit": "%"},
      {"measurement": "EC50", "value": "> 30", "unit": "µM"}
    ]},
    {"smiles": "C(=C\\c1cccc2c3c([nH]c12)C1CCN(CC1)C3)/c1ccccc1", "note": "[Example 19, 7-[(E)-2-phenylvinyl]-3,4,5,6-tetrahydro-1H-2,5-ethanoazepino[4,3-b]indole]", "values": [
      {"measurement": "Emax", "value": 64, "unit": "%"},
      {"measurement": "EC50", "value": 3.52, "unit": "µM"}
    ]},
    {"smiles": "C(=C/c1cccc2c3c([nH]c12)C1CCN(CC1)C3)/c1cncnc1", "note": "(single isomer, unassigned) [Example 30, 7-[(Z)-2-(pyrimidin-5-yl)vinyl]-3,4,5,6-tetrahydro-1H-2,5-ethanoazepino[4,3-b]indole]", "values": [
      {"measurement": "Emax", "value": 29, "unit": "%"},
      {"measurement": "EC50", "value": "> 30", "unit": "µM"}
    ]},
    {"smiles": "c1ccc2ncc(-c3cccc4c5c([nH]c34)C3CCN(CC3)C5)cc2c1", "note": "[Example 41, 7-(quinolin-3-yl)-3,4,5,6-tetrahydro-1H-2,5-ethanoazepino[4,3-b]indole]", "values": [
      {"measurement": "Emax", "value": 171, "unit": "%"},
      {"measurement": "EC50", "value": 3.68, "unit": "µM"}
    ]},
    {"smiles": "Cc1ccc(C#Cc2cccc3[nH]c4c(c23)CN2CCC4CC2)cn1", "note": "[Example 23, 10-[(6-methylpyridin-3-yl)ethynyl]-3,4,5,6-tetrahydro-1H-2,5-ethanoazepino[4,3-b]indole]", "values": [
      {"measurement": "Emax", "value": 140, "unit": "%"},
      {"measurement": "EC50", "value": 7.27, "unit": "µM"}
    ]}
  ]
}
